Converted amounts (≈) assume the structure as drawn.
Key:
Aspergillus fumigatus = experiment: Antifungal activity against Aspergillus fumigatus CGMCC3.7795 assessed as fungal growth inhibition by NCCLS protocol based method; assay type: functional
Pichia kudriavzevii = experiment: Antifungal activity against Candida krusei GIM2.1 assessed as fungal growth inhibition by NCCLS protocol based method; assay type: functional
Candida albicans [1] = experiment: Antifungal activity against Candida albicans CPCC400616 assessed as fungal growth inhibition by NCCLS protocol based method; assay type: functional
Candida albicans [2] = experiment: Antifungal activity against FLC-resistant Candida albicans 311 assessed as fungal growth inhibition by NCCLS protocol based method; assay type: functional
Candida albicans [3] = experiment: Antifungal activity against FLC-resistant Candida albicans 901 assessed as fungal growth inhibition by NCCLS protocol based method; assay type: functional
Candida albicans [4] = experiment: Antibiofilm activity against FLC-resistant Candida albicans CPCC400616 assessed as assessed as inhibition of biofilm formation measured at 3 hrs by XTT reduction assay; assay type: functional
MCF7 = experiment: Cytotoxicity against human MCF7 cells assessed as inhibition of cell growth incubated for 4 hrs by MTT assay; assay type: functional, cell-based; conditions: MCF7, 4 h
Cryptococcus neoformans = experiment: Antifungal activity against Cryptococcus neoformans CGMCC 2.3161 assessed as fungal growth inhibition by NCCLS protocol based method; assay type: functional
Candida albicans [5] = experiment: Antifungal activity against FLC-resistant Candida albicans CaR assessed as fungal growth inhibition by NCCLS protocol based method; assay type: functional
Candida albicans [6] = experiment: Antibiofilm activity against FLC-resistant Candida albicans CPCC400616 assessed as assessed as inhibition of biofilm formation measured at 24 hrs by XTT reduction assay; assay type: functional
Candida albicans [7] = experiment: Antifungal activity against FLC-resistant Candida albicans 632 assessed as fungal growth inhibition by NCCLS protocol based method; assay type: functional
Candida albicans [8] = experiment: Fungicidal activity against Candida albicans CPCC400616 assessed as minimum inhibitory concentration incubated for 48 hrs; assay type: functional
Candida albicans [9] = experiment: Antifungal activity against Candida albicans ATCC SC5314 assessed as fungal growth inhibition by NCCLS protocol based method; assay type: functional
Candida albicans [10] = experiment: Antifungal activity against FLC-resistant Candida albicans 103 assessed as fungal growth inhibition by NCCLS protocol based method; assay type: functional
Candida albicans [11] = experiment: Antifungal activity against FLC-resistant Candida albicans 100 assessed as fungal growth inhibition by NCCLS protocol based method; assay type: functional
Candida albicans [12] = experiment: Fungicidal activity against Candida albicans CPCC400616 assessed as minimum fungicidal concentration incubated for 48 hrs; assay type: functional
A549 = experiment: Cytotoxicity against human A549 cells assessed as inhibition of cell growth incubated for 4 hrs by MTT assay; assay type: functional, cell-based; conditions: A549, 4 h
HepG2 = experiment: Cytotoxicity against human HepG2 cells assessed as inhibition of cell growth incubated for 4 hrs by MTT assay; assay type: functional, cell-based; conditions: HepG2, 4 h
Candida albicans [13] = experiment: […] for fungicidal activity against Candida albicans CPCC400616; assay type: functional
[14] = Cytotoxicity against human HEK293T cells assessed as inhibition of cell growth incubated for 4 hrs by MTT assay; assay type: toxicity, cell-based, HEK-293T
Candida tropicalis = experiment: Antifungal activity against Candida tropicalis CGMCC 2.3739 assessed as fungal growth inhibition by NCCLS protocol based method; assay type: functional
Nakaseomyces glabratus = experiment: Antifungal activity against Candida glabrata clinical isolate assessed as fungal growth inhibition by NCCLS protocol based method; assay type: functional
Candida albicans [15] = experiment: Antibiofilm activity against FLC-resistant Candida albicans CPCC400616 assessed as assessed as inhibition of biofilm formation measured at 6 hrs by XTT reduction assay; assay type: functional
Candida albicans [16] = experiment: Antibiofilm activity against FLC-resistant Candida albicans CPCC400616 assessed as assessed as inhibition of biofilm formation measured at 18 hrs by XTT reduction assay; assay type: functional
Candida parapsilosis = experiment: Antifungal activity against Candida parapsilosis GIM2.190 assessed as fungal growth inhibition by NCCLS protocol based method; assay type: functional; conditions: Lodderomyces parapsilosis
Candida albicans [17] = experiment: Antifungal activity against FLC-resistant Candida albicans 904 assessed as fungal growth inhibition by NCCLS protocol based method; assay type: functional

SMILES	MIC (Aspergillus fumigatus) [µg/mL]	MIC (Pichia kudriavzevii) [µg/mL]	MIC (Candida albicans [1]) [µg/mL]	MIC (Candida albicans [2]) [µg/mL]	MIC (Candida albicans [3]) [µg/mL]	MIC50 (Candida albicans [4]) [µg/mL]	IC50 (MCF7) [µM]	MIC (Cryptococcus neoformans) [µg/mL]	MIC (Candida albicans [5]) [µg/mL]	MIC50 (Candida albicans [6]) [µg/mL]	MIC (Candida albicans [7]) [µg/mL]	MIC (Candida albicans [9]) [µg/mL]	IC50 (A549) [µM]	IC50 (HepG2) [µM]	IC50 at 4 h [14] [µM]	MIC (Candida tropicalis) [µg/mL]	MIC (Nakaseomyces glabratus) [µg/mL]	MIC50 (Candida albicans [15]) [µg/mL]	MIC50 (Candida albicans [16]) [µg/mL]	MIC (Candida parapsilosis) [µg/mL]	other results
OC(Cn1cncn1)(Cn1cncn1)c1ccc(F)cc1F [FLUCONAZOLE]	> 64	8 (≈ 26.1 µM)	1 (≈ 3.27 µM)	> 64	> 64	32 (≈ 104 µM)	> 50	4 (≈ 13.1 µM)	> 64	> 64	> 64	0.5 (≈ 1.63 µM)	> 50	> 50	> 50	0.5 (≈ 1.63 µM)	4 (≈ 13.1 µM)	> 64	> 64	2 (≈ 6.53 µM)	MIC (Candida albicans [8]): 0.5 µg/mL (≈ 1.63 µM); MIC (Candida albicans [10]): > 64 µg/mL; MIC (Candida albicans [11]): > 64 µg/mL; MFC (Candida albicans [12]): > 64 µg/mL; Ratio (Candida albicans [13]): > 128; MIC (Candida albicans [17]): > 64 µg/mL
CCC(C)n1ncn(-c2ccc(N3CCN(c4ccc(OCC5COC(Cn6cncn6)(c6ccc(Cl)cc6Cl)O5)cc4)CC3)cc2)c1=O (stereo not drawn) [ITRACONAZOLE]	0.125 (≈ 0.177 µM)	0.125 (≈ 0.177 µM)	0.03 (≈ 0.0425 µM)	–	–	16 (≈ 22.7 µM)	> 50	0.125 (≈ 0.177 µM)	–	> 64	–	0.03 (≈ 0.0425 µM)	> 50	> 50	> 50	0.03 (≈ 0.0425 µM)	0.125 (≈ 0.177 µM)	32 (≈ 45.3 µM)	> 64	0.125 (≈ 0.177 µM)	–
Fc1ccc(C2(Cn3ccnc3)COC(c3ccc(-c4ccccc4)s3)=N2)cc1 (stereo not drawn)	4 (≈ 9.91 µM)	0.125 (≈ 0.31 µM)	0.06 (≈ 0.149 µM)	1 (≈ 2.48 µM)	0.25 (≈ 0.62 µM)	0.25 (≈ 0.62 µM)	> 50	0.5 (≈ 1.24 µM)	1 (≈ 2.48 µM)	16 (≈ 39.7 µM)	1 (≈ 2.48 µM)	0.06 (≈ 0.149 µM)	> 50	10.5	14.2	0.06 (≈ 0.149 µM)	0.125 (≈ 0.31 µM)	2 (≈ 4.96 µM)	4 (≈ 9.91 µM)	0.25 (≈ 0.62 µM)	MIC (Candida albicans [8]): 0.06 µg/mL (≈ 0.149 µM); MIC (Candida albicans [10]): 0.25 µg/mL (≈ 0.62 µM); MIC (Candida albicans [11]): 0.5 µg/mL (≈ 1.24 µM); MFC (Candida albicans [12]): 0.5 µg/mL (≈ 1.24 µM); Ratio (Candida albicans [13]): 8; MIC (Candida albicans [17]): 0.25 µg/mL (≈ 0.62 µM)

Reference: ChEMBL document CHEMBL5131399, “Broadening antifungal spectrum and improving metabolic stablity based on a scaffold strategy: Design, synthesis, and evaluation of novel 4-phenyl-4,5-dihydrooxazole derivatives as potent fungistatic and fungicidal reagents” (Eur J Med Chem, 2022)
